Results on three compounds are retold here after patent publication US11685902B2, “Production method for kidney-like tissue” (Tokushima University, priority 2016, dated 2023).

The test system of series [1] is kidney-like microspheres (HUVEC, hMSC, HEK, hMC, HK2). In kind it is cell-based, human. As for the experimental part: Kidney-like organoids were produced in vitro by co-culturing endothelial cells (HUVEC), mesenchymal stem cells (hMSC), and human embryonic kidney cells (HEK) with human mesangial cells (hMC) and human renal tubular cells (HK2). 5×10^4 hMSC, 2×10^5 HUVEC, 5×10^4 HEK, 5×10^4 hMC, and 5×10^4 HK 2 were suspended in 2 ml 10% FCS or MSCGM, and seeded in a MicroWell culture plate. After incubation in a 5% CO2 humidified incubator at 37° C. for 24 hours, formation of cell aggregates and microspheres was observed (FIG. 6). The resulting kidney-like microspheres maintained their spherical morphology for 20 days or longer. • 7. Analysis of Gene Expression
RT-PCR analysis was performed on mRNA of kidney-like microspheres using five types of cells. Total RNA was extracted from the spheres using a TRIzol reagent (Invitrogen), and reverse-transcribed with an oligo (dT) primer using a SuperScript First-Strand Synthesis kit (Invitrogen) to produce first-strand cDNA. Subsequently, PCR was performed to detect the expression of renal tubular cell-specific genes, renal tubular injury marker (epithelial-mesenchymal transition (EMT)) genes, and GAPDH. […] The influence of cisplatin was analyzed by adding cisplatin to the culture solution to a final concentration of 5 μM, and extracting RNA after 3 hours and after 24 hours for analysis. […]

For series [2], the system named is three-dimensional kidney-like tissue (embryonic kidney cells, mesenchymal stem cells, proximal renal tubular cells, vascular endothelial cells). In kind it is cell-based. As for the experimental part:
Embryonic kidney cells, mesenchymal stem cells, proximal renal tubular cells, and vascular endothelial cells were co-cultured for 24 hours to obtain a self-organized, three-dimensional kidney-like tissue (FIG. 9 (A)). This was exposed to cisplatin at a concentration of 5 μM, and spheres were collected after 3 hours and after 24 hours. After extraction of RNA, changes in gene expression were analyzed by the RT-PCR method. After the culture solution of the spheres was collected and cell components were separated by centrifugation, β2 microglobulin was measured with a “Lumipulse Presto β2-M” (produced by Fujirebio, Inc.) kit (FIG. 9 (B)). Further, changes in the shape of the spheres were imaged using an optical microscope (FIG. 9 (C)). […] Use of Microspheres as Kidney Model (Podocyte Injury)

Series [3] concerns three-dimensional kidney-like tissue (embryonic kidney cells, mesenchymal stem cells, vascular endothelial cells). The series can be described thus: Kidney model (podocyte injury): three-dimensional kidney-like tissue exposed to puromycin, nephrin qRT-PCR. The note with it: puromycin 50 μg/ml, 24 hours, qRT-PCR (FIG. 10). In kind it is cell-based. The protocol: Embryonic kidney cells, mesenchymal stem cells, and vascular endothelial cells were co-cultured for 24 hours to obtain a self-organized, three-dimensional kidney-like tissue. The kidney-like tissue was exposed to puromycin at a concentration of 50 μg/ml. After 24 hours, spheres were collected. After extraction of RNA, changes in nephrin gene expression were analyzed by the qRT-PCR method (FIG. 10). […] Using this model allows for screening an effective drug for podocyte injury. • 12. Use as Pathophysiological Analysis System for Human Refractory Renal Disease
Background: In qPCR the cycle at which signal appears reflects the starting amount.

For the compound `N.N.[Cl][Pt][Cl]` [cisplatin], the “expression of genes constitutively expressed in podocytes” value in series [1] is “reduction”. Moreover, the “renal damage reflected by analysis results (gene expression, β2 microglobulin, sphere shape)” value in series [2] is “renal tubular injury at the acute phase and podocyte injury at the chronic phase”.

With `CN(C)C(=N)N=C(N)N` [metformin], the “abnormal changes in gene expression in acute kidney injury caused by cisplatin” value in series [1] (pre-administration, 3 hours after cisplatin administration (left side of FIG. 7)) was “inhibited”. Turning to `COc1ccc(C[C@H](N)C(=O)N[C@H]2[C@@H](O)[C@H](n3cnc4c(N(C)C)ncnc43)O[C@@H]2CO)cc1` [puromycin], in series [3], the “podocyte injury (changes in nephrin gene expression)” value is recorded as “podocyte injury model, which was conventionally prepared by using mice, can be reproduced”.
